Measurements published in patent US20090215906A1 (priority 2005, published 2009).
Like-named read-outs stand apart in the source and are kept apart here.

How the values were obtained:
Male Baboons [1] = assay: Effects of Clomids on serum testosterone and prolactin in male baboons; assay type: in vivo, Baboon; settings: 1.5 mg/kg for 12 days, in words
Text: There were no changes in serum LH or FSH. […] There was also no change in body weight during the 12 day study.

Male Baboons [2] = assay: Effects of Clomids on clinical chemistry and hematology parameters in male baboons
Text: (§1) The samples analyzed were sera taken on the day of first treatment before being given test article (day 0), after 12 days of treatment (day 12) and 7 days after the last treatment (end or washout).

hypogonadal men [3] = system: hypogonadal men
Description: (§2) Half of the men in each of the Androxal™ and placebo arms were randomized into cohorts that underwent in-clinic sessions on days 1 and 14 to determine pharmacokinetic parameters for Androxal™ as well as cyclical changes in testosterone. The placebo and Androxal™ doses were administered in a double blind fashion. The Androgel® cream was administered in an open label fashion. Half of the Androgel® patients underwent in-clinic sessions similar to the other patients in the study. Following the two week drug exposure patients were followed for an additional seven to ten days to determine the status of their testosterone levels.

hypogonadal men [4] = system: hypogonadal men; remark: listed apart in the source
Description: as §2

men = settings: cited from earlier work
Male Baboons [5] = assay: Effects of Clomids on serum cholesterol in male baboons; assay type: in vivo, Baboon; settings: 1.5 mg/kg for 12 days
Text: as §1

Male Baboons [6] = settings: in vivo, 1.5 mg/kg
Text: as §1

[7] = men, after 2 months, Guay et al. 1995

Structure (SMILES) | effect on total serum testosterone (Male Baboons [1]) | counts of eosinophiles (Male Baboons [2]; 1.5 mg/kg for 12 days) | effects on the red blood cell population (Male Baboons [2]; 1.5 mg/kg for 12 days) | lymphocyte count (Male Baboons [2]; 1.5 mg/kg for 12 days) | serum creatinine values (Male Baboons [2]; between day 0 and Day 12) | per cent of granulocytes in the blood (Male Baboons [2]; very strong after the 7-day washout) | changes in testosterone from baseline testosterone levels (in words) (hypogonadal men [3]; all doses) | serum levels of LH (hypogonadal men [3]; during treatment) | reduction in triglycerides (hypogonadal men [4]; average, non-dose dependent, after two weeks of therapy) [%] | side effects different than placebo (hypogonadal men [4]; two week exposure) | LH, FSH, and testosterone (men; [7]) | erectile dysfunction (men; [7]) | semen quality or fertility (men; men, after 6 months of treatment, WHO study) | free and total testosterone (men; men, Tenover et al. 1987) | FSH, LH (men; young and old men after treatment, Tenover et al. 1987) | serum cholesterol levels (in words) (Male Baboons [5]) | effects on hematocrit (Male Baboons [6]) | effects on the red blood cell population (Male Baboons [6])
CCN(CC)CCOc1ccc(/C(=C(\Cl)c2ccccc2)c2ccccc2)cc1 [Enclomid, trans-clomiphene] | significant increases | raising | substantive effects | increase | no differences | lowering | statistically significant changes | statistically increase | 19.1 | no side effects | – | – | – | – | – | – | – | –
CCN(CC)CCOc1ccc(C(=C(Cl)c2ccccc2)c2ccccc2)cc1 [Clomid, clomiphene] | more variable total testosterone levels | – | – | – | – | – | – | – | – | – | increase | no effects | no changes | increases | increased | slight increase | – | –
CCN(CC)CCOc1ccc(/C(=C(/Cl)c2ccccc2)c2ccccc2)cc1 [Zuclomid, cis-clomiphene] | – | – | – | – | – | – | – | – | – | – | – | – | – | – | – | – | substantive effects | substantive effects
